Source: US20030087906A1, “NITROGEN SUBSTITUTED BIARYL PURINE DERIVATIVES AS POTENT ANTIPROLIFERATIVE AGENTS” (priority 2001, published 2003)

Legend:
[1] = test system: MDA-N; experiment: NCI 60-cell line growth inhibition assay; type: cell-based; conditions: Homo sapiens; MDA-N (Breast)
[2] = test system: SF-268; experiment: NCI 60-cell line growth inhibition assay; type: cell-based; conditions: Homo sapiens; SF-268 (CNS)
[3] = test system: SNB-75; experiment: NCI 60-cell line growth inhibition assay; type: cell-based; conditions: Homo sapiens; SNB-75 (CNS)
[4] = test system: SW-620; experiment: NCI 60-cell line growth inhibition assay; type: cell-based; conditions: Homo sapiens; SW-620 (Colon)
[5] = test system: MOLT-4; experiment: NCI 60-cell line growth inhibition assay; type: cell-based; conditions: Homo sapiens; MOLT-4 (Leukemia)
[6] = test system: NCI/ADR-RES; experiment: NCI 60-cell line growth inhibition assay; type: cell-based; conditions: Homo sapiens; NCI/ADR-RES (Breast)
[7] = test system: NCI-H522; experiment: NCI 60-cell line growth inhibition assay; type: cell-based; conditions: Homo sapiens; NCI-H522 (Non-Small Cell Lung)
[8] = test system: A549/ATCC; experiment: NCI 60-cell line growth inhibition assay; type: cell-based; conditions: Homo sapiens; A549/ATCC (Non-Small Cell Lung)
[9] = test system: CCRF-CEM; experiment: NCI 60-cell line growth inhibition assay; type: cell-based; conditions: Homo sapiens; CCRF-CEM (Leukemia)
[10] = test system: HOP-62; experiment: NCI 60-cell line growth inhibition assay; type: cell-based; conditions: Homo sapiens; HOP-62 (Non-Small Cell Lung)
[11] = test system: KM12; experiment: NCI 60-cell line growth inhibition assay; type: cell-based; conditions: Homo sapiens; KM12 (Colon)
[12] = test system: NCI-H460; experiment: NCI 60-cell line growth inhibition assay; type: cell-based; conditions: Homo sapiens; NCI-H460 (Non-Small Cell Lung)
[13] = test system: SK-MEL-2; experiment: NCI 60-cell line growth inhibition assay; type: cell-based; conditions: Homo sapiens; SK-MEL-2 (Melanoma)
[14] = test system: HOP-92; experiment: NCI 60-cell line growth inhibition assay; type: cell-based; conditions: Homo sapiens; HOP-92 (Non-Small Cell Lung)
[15] = test system: SR; experiment: NCI 60-cell line growth inhibition assay; type: cell-based; conditions: Homo sapiens; SR (Leukemia)
[16] = test system: DU-145; experiment: NCI 60-cell line growth inhibition assay; type: cell-based; conditions: Homo sapiens; DU-145 (Prostate)
[17] = test system: COLO 205; experiment: NCI 60-cell line growth inhibition assay; type: cell-based; conditions: Homo sapiens; COLO 205 (Colon)
[18] = test system: UACC-257; experiment: NCI 60-cell line growth inhibition assay; type: cell-based; conditions: Homo sapiens; UACC-257 (Melanoma)
[19] = test system: MDA-MB-231/ATCC; experiment: NCI 60-cell line growth inhibition assay; type: cell-based; conditions: Homo sapiens; MDA-MB-231/ATCC (Breast)
[20] = test system: SK-OV-3; experiment: NCI 60-cell line growth inhibition assay; type: cell-based; conditions: Homo sapiens; SK-OV-3 (Ovarian)
[21] = test system: NCI-H322M; experiment: NCI 60-cell line growth inhibition assay; type: cell-based; conditions: Homo sapiens; NCI-H322M (Non-Small Cell Lung)
[22] = test system: SK-MEL-5; experiment: NCI 60-cell line growth inhibition assay; type: cell-based; conditions: Homo sapiens; SK-MEL-5 (Melanoma)
[23] = test system: K-562; experiment: NCI 60-cell line growth inhibition assay; type: cell-based; conditions: Homo sapiens, K562; K-562 (Leukemia)
[24] = test system: MALME-3M; experiment: NCI 60-cell line growth inhibition assay; type: cell-based; conditions: Homo sapiens; MALME-3M (Melanoma)
[25] = test system: HCT-15; experiment: NCI 60-cell line growth inhibition assay; type: cell-based; conditions: Homo sapiens; HCT-15 (Colon)
[26] = test system: M14; experiment: NCI 60-cell line growth inhibition assay; type: cell-based; conditions: Homo sapiens; M14 (Melanoma)
[27] = test system: UO-31; experiment: NCI 60-cell line growth inhibition assay; type: cell-based; conditions: Homo sapiens; UO-31 (Renal)
[28] = test system: HCT-116; experiment: NCI 60-cell line growth inhibition assay; type: cell-based; conditions: Homo sapiens; HCT-116 (Colon)
[29] = test system: TK-10; experiment: NCI 60-cell line growth inhibition assay; type: cell-based; conditions: Homo sapiens; TK-10 (Renal)
[30] = test system: A498; experiment: NCI 60-cell line growth inhibition assay; type: cell-based; conditions: Homo sapiens; A498 (Renal)
[31] = test system: 786-0; experiment: NCI 60-cell line growth inhibition assay; type: cell-based; conditions: Homo sapiens; 786-0 (Renal)
[32] = test system: U251; experiment: NCI 60-cell line growth inhibition assay; type: cell-based; conditions: Homo sapiens, U-251; U251 (CNS)
[33] = test system: OVCAR-3; experiment: NCI 60-cell line growth inhibition assay; type: cell-based; conditions: Homo sapiens; OVCAR-3 (Ovarian)
[34] = test system: HCC-2998; experiment: NCI 60-cell line growth inhibition assay; type: cell-based; conditions: Homo sapiens; HCC-2998 (Colon)
[35] = test system: EKVX; experiment: NCI 60-cell line growth inhibition assay; type: cell-based; conditions: Homo sapiens; EKVX (Non-Small Cell Lung)
[36] = test system: UACC-62; experiment: NCI 60-cell line growth inhibition assay; type: cell-based; conditions: Homo sapiens; UACC-62 (Melanoma)
[37] = test system: SF-295; experiment: NCI 60-cell line growth inhibition assay; type: cell-based; conditions: Homo sapiens; SF-295 (CNS)
[38] = test system: SK-MEL-28; experiment: NCI 60-cell line growth inhibition assay; type: cell-based; conditions: Homo sapiens; SK-MEL-28 (Melanoma)
[39] = test system: OVCAR-5; experiment: NCI 60-cell line growth inhibition assay; type: cell-based; conditions: Homo sapiens; OVCAR-5 (Ovarian)
[40] = test system: Tumor Cells in Hollow Fibers; experiment: NCI Hollow Fiber Assay (in vivo evaluation)

For Cn1cnc2c(NCc3ccccc3)nc(NCCO)nc21 [Olomoucine, reference compound], the GI50 [1] was 79 µM, the GI50 [2] was 50 µM and the GI50 [3] was 25 µM. For the same molecule, the GI50 [4] was 40 µM, the GI50 [5] was 63 µM and the GI50 [6] was 100 µM. It also gave a GI50 [7] of 40 µM, a GI50 [8] of 50 µM and a GI50 [9] of 40 µM. For the same molecule, the GI50 [10] was 32 µM, the GI50 [11] was 40 µM and the GI50 [12] was 63 µM. The GI50 [13] was 100 µM, the GI50 [14] was 50 µM and the GI50 [15] was 25 µM. The GI50 [16] was 40 µM, the GI50 [17] was 32 µM and the GI50 [18] was 79 µM. The GI50 [19] was 100 µM, the GI50 [20] was 100 µM and the GI50 [21] was 63 µM. For the same molecule, the GI50 [22] was 40 µM, the GI50 [23] was 100 µM and the GI50 [24] was 100 µM. The GI50 [25] was 40 µM, the GI50 [26] was 100 µM and the GI50 [27] was 32 µM. It also gave a GI50 [28] of 40 µM, a GI50 [29] of 63 µM and a GI50 [30] of 32 µM. For the same molecule, the GI50 [31] was 63 µM, the GI50 [32] was 50 µM and the GI50 [33] was 79 µM. For the same molecule, the GI50 [34] was 63 µM, the GI50 [35] was 100 µM and the GI50 [36] was 32 µM. It also gave a GI50 [37] of 79 µM, a GI50 [38] of 50 µM and a GI50 [39] of 40 µM.
Work on CC[C@H](CO)Nc1nc(NCc2ccc(-c3cccc([N+](=O)[O-])c3)cc2)c2ncn(C(C)C)c2n1 [Compound 48] yielded a GI50 [1] of 0.02 µM, a GI50 [2] of less than 0.01 µM and a GI50 [3] of less than 0.01 µM. For the same molecule, the GI50 [4] was less than 0.01 µM, the GI50 [5] was 0.05 µM and the GI50 [6] was 0.12 µM. It also gave a GI50 [7] of less than 0.01 µM, a GI50 [8] of less than 0.01 µM and a GI50 [9] of 0.03 µM. It also gave a GI50 [10] of 0.03 µM, a GI50 [11] of 0.02 µM and a GI50 [12] of 0.25 µM. The GI50 [13] was 0.48 µM, the GI50 [14] was 0.46 µM and the GI50 [15] was 0.16 µM. For the same molecule, the GI50 [16] was 0.55 µM, the GI50 [17] was 0.03 µM and the GI50 [18] was 0.04 µM. The GI50 [19] was 0.09 µM, the GI50 [20] was 1.38 µM and the GI50 [21] was 0.03 µM. It also gave a GI50 [22] of 0.17 µM, a GI50 [23] of 0.16 µM and a GI50 [24] of 0.13 µM. For the same molecule, the GI50 [25] was 0.02 µM, the GI50 [26] was less than 0.01 µM and the GI50 [27] was less than 0.01 µM. For the same molecule, the GI50 [28] was 0.19 µM, the GI50 [29] was 0.37 µM and the GI50 [30] was 0.39 µM. The GI50 [31] was 0.25 µM, the GI50 [32] was 0.17 µM and the GI50 [33] was 0.17 µM. It also gave a GI50 [36] of 0.1 µM, a GI50 [37] of 0.24 µM and a GI50 [38] of less than 0.01 µM. The GI50 [39] was 0.16 µM.
For CC(C)n1cnc2c(NCc3ccc(-c4ccsc4)cc3)nc(N[C@H]3CC[C@H](N)CC3)nc21 [Compound 12], the GI50 [1] was less than 0.005 µM, the GI50 [2] was less than 0.005 µM and the GI50 [3] was less than 0.005 µM. It also gave a GI50 [4] of less than 0.005 µM, a GI50 [5] of less than 0.005 µM and a GI50 [6] of 1.26 µM. The GI50 [7] was less than 0.005 µM, the GI50 [8] was less than 0.005 µM and the GI50 [9] was less than 0.005 µM. It also gave a GI50 [10] of less than 0.005 µM, a GI50 [11] of less than 0.005 µM and a GI50 [13] of 0.0096 µM. For the same molecule, the GI50 [14] was 0.011 µM, the GI50 [15] was less than 0.005 µM and the GI50 [16] was 0.017 µM. It also gave a GI50 [17] of less than 0.005 µM, a GI50 [18] of 0.008 µM and a GI50 [19] of less than 0.005 µM. For the same molecule, the “Cell Types Killed” value [40] was “MDA-MB-435”, the “IP Score” value ([40]; IP fibers) was 26 and the SC score ([40]; SC fibers) was 4. The GI50 [21] was less than 0.005 µM, the GI50 [23] was less than 0.005 µM and the GI50 [25] was 0.17 µM. It also gave a GI50 [26] of less than 0.005 µM, a GI50 [27] of 0.063 µM and a GI50 [28] of 0.0089 µM. For the same molecule, the GI50 [29] was 0.01 µM, the GI50 [30] was 0.016 µM and the GI50 [31] was 0.0065 µM. For the same molecule, the GI50 [32] was 0.0078 µM, the GI50 [33] was 0.012 µM and the GI50 [34] was less than 0.005 µM. The GI50 [35] was 0.023 µM, the GI50 [36] was 0.027 µM and the GI50 [37] was 0.018 µM. It also gave a GI50 [38] of 0.01 µM and a GI50 [39] of 0.017 µM.
